Two molecules from patent US20220195487A1, “Method for Measuring Inhibition of Bacteria by Antibacterial Drug, and Bacterial Counting Device and Method Thereof” (BEIJING XINJI JINNUO MEDICAL EQUIPMENT CO.,LTD., priority 2019, published 2022) can be followed below.

What all share (type): cell-based
The subject of assay [1] is Staphylococcus aureus (ATCC29213). Nature of the assay: 2 h susceptibility by resistance bacterial counter. Particulars: Example 3, resistance counting, 2 h at 37° C., 60% of the positive count value as threshold. As to the method: (§1) 2.2.1 Preparation of bacterial strains: In accordance with the requirements of the CLSI standards, pick each fresh strains within 24 h with a turbidity of 0.5 McFarland units in the column of strain name in Table 5;
(§2) 2.2.2 Inoculation: Take 100 μL of each bacterial suspension with a turbidity of 0.5 McFarland units and dispense to a 48-well plate with pre-configured gradient antibiotics, 500 μL dispensed in each well;
(§3) 2.2.3 Incubation and detection: Incubate for 2 h at 37° C., and measure with a resistance bacterial counter. Adjust the instrument to its best sensitivity and then count bacteria. Record the 24 h routine susceptibility results for comparative analysis.

For assay [2] the test system is unchanged. Nature of the assay: 24 h routine (conventional) drug susceptibility testing by visual observation.
For assay [3] the test system is unchanged. The experiment in a line: rapid drug susceptibility testing of living cells (live bacteria counting, 2 h). The conditions noted are these: for Living cell counts: 2 h. As to the method: (§4) 1.2.1 Preparation of bacterial strains: in accordance with the requirements of the CLSI standards, pick each fresh strains within 24 h with a turbidity of 0.5 McFarland units in the column of strain name in Table 7.
(§5) 1.2.2 Inoculation: take 100 μL of each bacterial suspension with a turbidity of 0.5 McFarland units and dispense to a 48-well plate with pre-configured gradient antibiotics, 500 μL dispensed in each well.
(§6) 1.2.3 Incubation and detection: incubate for 2 h at 37° C., and perform live bacteria counting. Record the 24 h routine susceptibility results for comparative analysis.

Assay [4] has as its system Pseudomonas aeruginosa (ATCC27853). Nature of the assay: 2 h susceptibility by resistance bacterial counter. Particulars: Example 3, resistance counting, 2 h at 37° C., 60% of the positive count value as threshold. As to the method:
as §1, §2, §3

Assay [5] has the same test system. The experiment in a line: 24 h routine (conventional) drug susceptibility testing by visual observation.
Assay [6] has the same test system. Nature of the assay: rapid drug susceptibility testing of living cells (live bacteria counting, 2 h). The conditions noted are these: for Living cell counts: 2 h. As to the method: as §4, §5, §6
Where [7] appears, read: Example 3, 24 h routine susceptibility.
Where [8] appears, read: Example 4, 24 h routine susceptibility.
[9] abbreviates: Example 4, live bacteria counting, 2 h at 37° C.

Values after ≈ are worked out from the molar mass of the structure shown.

Consider `CC[C@H]1OC(=O)[C@H](C)[C@@H](O[C@H]2C[C@@](C)(OC)[C@@H](O)[C@H](C)O2)[C@H](C)[C@@H](O[C@@H]2O[C@H](C)C[C@H](N(C)C)[C@H]2O)[C@](C)(O)C[C@@H](C)C(=O)[C@H](C)[C@@H](O)[C@]1(C)O` [Erythromycin], for which the “2 hMIC” value in assay [1] turned out to be 0.5. Also, the “24 hMIC” value in assay [2] (setting [7]) was 0.25. The same molecule displayed an MIC, conventional drug susceptibility testing in assay [2] (setting [8]) of 0.25 µg/mL (≈ 0.341 µM). Also, the Living cell counts in assay [3] (0.03 μg/mL) is reported as 5107 cells/μL; in assay [3] (0.06 μg/mL), 5078 cells/μL; in assay [3] (0.12 μg/mL) it was 3980 cells/μL; in assay [3] (0.25 μg/mL), 889 cells/μL; in assay [3] (0.5 μg/mL), 609 cells/μL; in assay [3] (1 μg/mL), 598 cells/μL. Besides, the Living cell counts came to 498 cells/μL in assay [3] (2 μg/mL), 460 cells/μL in assay [3] (4 μg/mL), 446 cells/μL in assay [3] (8 μg/mL) and 457 cells/μL in assay [3] (16 μg/mL). Moreover, the MIC, rapid drug susceptibility testing of living cells in assay [3] (setting [9]) is 0.25 µg/mL.

On to `CC(C)(O/N=C(\C(=O)N[C@@H]1C(=O)N2C(C(=O)[O-])=C(C[n+]3ccccc3)CS[C@H]12)c1csc(N)n1)C(=O)O` [Ceftazidime], for which the “2 hMIC” value in assay [4] is on record as 4. In assay [5] (setting [7]), the “24 hMIC” value is on record as 2. The same molecule gave an MIC, conventional drug susceptibility testing in assay [5] (setting [8]) of 2 µg/mL (≈ 3.66 µM). The Living cell counts in assay [6] (0.03 μg/mL) is recorded as 1509 cells/μL; in assay [6] (0.06 μg/mL) it was 1478 cells/μL; in assay [6] (0.12 μg/mL), 1513 cells/μL; in assay [6] (0.25 μg/mL) it was 1480 cells/μL; in assay [6] (0.5 μg/mL), 1235 cells/μL; in assay [6] (1 μg/mL), 1090 cells/μL. For the same molecule, the Living cell counts in assay [6] (2 μg/mL) was 308 cells/μL; in assay [6] (4 μg/mL), 297 cells/μL; in assay [6] (8 μg/mL), 202 cells/μL; in assay [6] (16 μg/mL) it was 209 cells/μL. The same molecule displayed an MIC, rapid drug susceptibility testing of living cells in assay [6] (setting [9]) of 2 µg/mL.
